These results are taken from patent EP3046573B1, “AMYLIN ANALOGUES” (Zealand Pharma A/S, priority 2013, dated 2015).

Structures are written as SMILES. Numbered stars: 1 amine (or outer) side, 2 acyl side, 3 side chain; on linkers, the order of the positions; unused ones are H or OH. Bridge positions count the residues as written; N and C are the ends. Square brackets hold non-standard residues; d marks the D form. Peptide text beside a SMILES is read from it. * marks the point of attachment. C20 diacid = O=C(O)CCCCCCCCCCCCCCCCCCC(=O)*; γGlu = O=C(O)[C@H](CCC(=O)[*:2])N[*:1]; NMeI = CC[C@H](C)[C@H](NC)C(=O)O; Sar = CNCC(=O)O

The target of data set [1] is T1, human calcitonin receptor (hCTR2) (Homo sapiens, UniProt P30988).
T1 construct: expressed in transfected cells
T1 sequence (P30988 25-474): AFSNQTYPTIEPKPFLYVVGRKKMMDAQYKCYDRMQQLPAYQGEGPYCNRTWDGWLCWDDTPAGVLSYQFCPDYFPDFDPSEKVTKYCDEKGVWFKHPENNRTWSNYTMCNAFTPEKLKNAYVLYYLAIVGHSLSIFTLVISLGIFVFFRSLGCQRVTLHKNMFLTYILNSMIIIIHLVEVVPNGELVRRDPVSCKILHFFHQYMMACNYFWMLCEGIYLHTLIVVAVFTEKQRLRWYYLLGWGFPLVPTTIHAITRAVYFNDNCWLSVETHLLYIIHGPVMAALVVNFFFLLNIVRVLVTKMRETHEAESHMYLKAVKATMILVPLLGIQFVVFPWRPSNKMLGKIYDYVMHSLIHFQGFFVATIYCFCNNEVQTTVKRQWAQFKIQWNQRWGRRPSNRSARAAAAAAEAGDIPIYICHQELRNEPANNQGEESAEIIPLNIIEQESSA
Briefly: hCTR2 assay: induction of cAMP (AlphaScreen cAMP Assay kit) in COS7 cells expressing hCTR2. In kind it is cell-based. In outline: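 Functional agonism is measured as cAMP accumulation in a COS7 line stably transfected with hCTR2, lacking endogenous RAMPs. Peptides act for 15 min at 37° C with IBMX present, and curves are fitted with a 4-parameter logistic model.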
(In general: Bead proximity is the source of the signal in Alpha formats.)

In data set [2] the target is T2, human amylin receptor 3 (hAMYR3) consisting of hCTR2 co-expressed with human Receptor Activity Modifying Protein 3 (hRAMP3) (Homo sapiens, UniProt O60896+P30988).
T2 construct: expressed in transfected cells
T2 sequence (P30988 25-474): T1 sequence (P30988 25-474)
T2 sequence (O60896 24-148 partner): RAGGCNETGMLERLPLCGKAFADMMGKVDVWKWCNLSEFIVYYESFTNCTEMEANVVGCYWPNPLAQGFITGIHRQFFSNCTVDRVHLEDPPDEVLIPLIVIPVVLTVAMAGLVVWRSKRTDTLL
Description: hAMYR3 assay: induction of cAMP (AlphaScreen cAMP Assay kit) in COS7 cells expressing hAMYR3. In kind it is cell-based. In outline: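 Stable COS7 clone co-expressing hCTR2 and hRAMP3, stimulated 15 min at 37° C with increasing peptide in Tyrode buffer pH 7.4 with 100 µM IBMX and 0.1% casein. cAMP measured by AlphaScreen after lysis; EC50 and % efficacy versus pramlintide from 4PL fit.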

The nature of data set [3]: Solubility assessment (turbidity absorbance at 325 nm). In kind it is physicochemical. Conditions: stock 2 mg/ml diluted 1:1, ambient temperature (typically 25°C), n=1; for Solubility, Acetate buffer pH 4: 100 mM acetate buffer pH 4.0; for Solubility, Acetate buffer pH 5: 100 mM acetate buffer pH 5.0; for Solubility, Histidine buffer pH 6: 100 mM histidine buffer pH 6.0; for Solubility, Histidine buffer pH 7: 100 mM histidine buffer pH 7.0; for Solubility, Phosphate buffer pH 6: 100 mM phosphate buffer pH 6.0; for Solubility, Phosphate buffer pH 7: 100 mM phosphate buffer pH 7.0; for Solubility, Phosphate buffer pH 7.5: 100 mM phosphate buffer pH7.5. An outline of the steps: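 Peptide stock (2 mg/ml) in water acidified to pH 2.5 with HCl was diluted 1:1 into 100 mM acetate (pH 4.0, 5.0), histidine (pH 6.0, 7.0) or phosphate (pH 6.0, 7.0, 7.5) buffer. A280 and A325 were read at about 25°C, n=1. A325 ≤ 0.02 meant solubility ≥ 1 mg/ml.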

Turning to `CC[C@H](C)[C@H](NC(=O)[C@@H](NC(=O)[C@H](CC(N)=O)NC(=O)[C@H](CO)NC(=O)CNC(=O)[C@@H](NC(=O)[C@H](CC(N)=O)NC(=O)[C@@H](NC(=O)[C@H](CO)NC(=O)[C@H](CO)NC(=O)[C@H](CC(C)C)NC(=O)[C@H]([C@@H](C)CC)N(C)C(=O)[C@H](C)NC(=O)CN(C)C(=O)[C@H](Cc1ccccc1)NC(=O)[C@H](CC(N)=O)NC(=O)[C@H](CC(N)=O)NC(=O)[C@H](CO)NC(=O)[C@H](CO)NC(=O)[C@H](CCCNC(=N)N)NC(=O)[C@H](Cc1c[nH]cn1)NC(=O)[C@H](CC(C)C)NC(=O)[C@H](Cc1ccccc1)NC(=O)[C@H](CCC(=O)O)NC(=O)[C@H](C)NC(=O)[C@H](CC(C)C)NC(=O)[C@H](CCCNC(=N)N)NC(=O)[C@H](CCC(N)=O)NC(=O)[C@@H](NC(=O)[C@H](C)NC(=O)[C@@H]1CSSC[C@H](NC(=O)[C@H](CCCNC(=N)N)NC(=O)CC[C@H](NC(=O)CCCCCCCCCCCCCCCCCCC(=O)O)C(=O)O)C(=O)N[C@@H](CC(N)=O)C(=O)N[C@@H]([C@@H](C)O)C(=O)N[C@@H](C)C(=O)N[C@@H]([C@@H](C)O)C(=O)N1)[C@@H](C)O)[C@@H](C)O)C(C)C)[C@@H](C)O)C(N)=O` [Compound 99, [19CD]-isoGlu-RC()NTATC()ATQRLAEFLHRSSNNF-Gly(Me)-A-Ile(Me)-LSSTNVGSNTI-NH2] ({C20 diacid-γGlu}-RCNTATCATQRLAEFLHRSSNNF[Sar]A[NMeI]LSSTNVGSNTI-NH2; disulfide 2-7), the EC50 in data set [1] was 0.27 nM. In data set [2], it took 2.2 nM to reach a half-maximal effect (EC50). In data set [3], the “Solubility, Acetate buffer pH 4” value is reported as “SS (SS indicates solubility ≥ 1mg/ml)”; the “Solubility, Acetate buffer pH 5” value was “SS (SS indicates solubility ≥ 1mg/ml)”; the “Solubility, Histidine buffer pH 6” value is “SS (SS indicates solubility ≥ 1mg/ml)”; the “Solubility, Histidine buffer pH 7” value was “SS (SS indicates solubility ≥ 1mg/ml)”. Further, in data set [3], the “Solubility, Phosphate buffer pH 6” value is “II (II indicates solubility ≤ 1 mg/ml)”; the “Solubility, Phosphate buffer pH 7” value is “SS (SS indicates solubility ≥ 1mg/ml)”; the “Solubility, Phosphate buffer pH 7.5” value is listed as “SS (SS indicates solubility ≥ 1mg/ml)”.
For the compound `CC[C@H](C)[C@@H](C(=O)N[C@@H](CC(C)C)C(=O)N[C@@H](CO)C(=O)N[C@@H](CO)C(=O)N[C@H](C(=O)N[C@@H](CC(N)=O)C(=O)N[C@H](C(=O)NCC(=O)N[C@@H](CO)C(=O)N[C@@H](CC(N)=O)C(=O)N[C@H](C(=O)N[C@@H](CC(C)C)C(N)=O)[C@@H](C)O)C(C)C)[C@@H](C)O)N(C)C(=O)[C@H](C)NC(=O)CN(C)C(=O)[C@H](Cc1ccccc1)NC(=O)[C@H](CC(N)=O)NC(=O)[C@H](CC(N)=O)NC(=O)[C@H](CO)NC(=O)[C@H](CO)NC(=O)[C@H](CCCNC(=N)N)NC(=O)[C@H](Cc1c[nH]cn1)NC(=O)[C@H](CC(C)C)NC(=O)[C@H](Cc1ccccc1)NC(=O)[C@H](CCC(=O)O)NC(=O)[C@H](C)NC(=O)[C@H](CC(C)C)NC(=O)[C@H](CCCNC(=N)N)NC(=O)[C@H](CCC(N)=O)NC(=O)[C@@H](NC(=O)[C@H](C)NC(=O)[C@@H]1CSSC[C@H](NC(=O)[C@H](CCCNC(=N)N)NC(=O)CC[C@H](NC(=O)CCCCCCCCCCCCCCCCCCC(=O)O)C(=O)O)C(=O)N[C@@H](CC(N)=O)C(=O)N[C@@H]([C@@H](C)O)C(=O)N[C@@H](C)C(=O)N[C@@H]([C@@H](C)O)C(=O)N1)[C@@H](C)O` [Compound 100, [19CD]-isoGlu-RC()NTATC()ATQRLAEFLHRSSNNF-Gly(Me)-A-Ile(Me)-LSSTNVGSNTL-NH2] ({C20 diacid-γGlu}-RCNTATCATQRLAEFLHRSSNNF[Sar]A[NMeI]LSSTNVGSNTL-NH2; disulfide 2-7), the EC50 in data set [1] was determined as 0.37 nM. In data set [2], this compound yielded a concentration giving a half-maximal response (EC50) of 6.3 nM. Also, in data set [3], the “Solubility, Acetate buffer pH 4” value was “SS (SS indicates solubility ≥ 1mg/ml)”; the “Solubility, Acetate buffer pH 5” value is given as “SS (SS indicates solubility ≥ 1mg/ml)”; the “Solubility, Histidine buffer pH 6” value is listed as “SS (SS indicates solubility ≥ 1mg/ml)”; the “Solubility, Histidine buffer pH 7” value is “SS (SS indicates solubility ≥ 1mg/ml)”. For the same compound, in data set [3], the “Solubility, Phosphate buffer pH 6” value is given as “II (II indicates solubility ≤ 1 mg/ml)”; the “Solubility, Phosphate buffer pH 7” value is “SS (SS indicates solubility ≥ 1mg/ml)”; the “Solubility, Phosphate buffer pH 7.5” value was “SS (SS indicates solubility ≥ 1mg/ml)”.
For `CC[C@H](C)[C@@H](C(=O)N[C@@H](CC(C)C)C(=O)N[C@@H](CO)C(=O)N[C@@H](CO)C(=O)N[C@H](C(=O)N[C@@H](CC(N)=O)C(=O)N[C@H](C(=O)NCC(=O)N[C@@H](CO)C(=O)N[C@@H](CC(N)=O)C(=O)N[C@H](C(=O)N(C)CC(N)=O)[C@@H](C)O)C(C)C)[C@@H](C)O)N(C)C(=O)[C@H](C)NC(=O)CN(C)C(=O)[C@H](Cc1ccccc1)NC(=O)[C@H](CC(N)=O)NC(=O)[C@H](CC(N)=O)NC(=O)[C@H](CO)NC(=O)[C@H](CO)NC(=O)[C@H](CCCNC(=N)N)NC(=O)[C@H](Cc1c[nH]cn1)NC(=O)[C@H](CC(C)C)NC(=O)[C@H](Cc1ccccc1)NC(=O)[C@H](CCC(=O)O)NC(=O)[C@H](C)NC(=O)[C@H](CC(C)C)NC(=O)[C@H](CCCNC(=N)N)NC(=O)[C@H](CCC(N)=O)NC(=O)[C@@H](NC(=O)[C@H](C)NC(=O)[C@@H]1CSSC[C@H](NC(=O)[C@H](CCCNC(=N)N)NC(=O)CC[C@H](NC(=O)CCCCCCCCCCCCCCCCCCC(=O)O)C(=O)O)C(=O)N[C@@H](CC(N)=O)C(=O)N[C@@H]([C@@H](C)O)C(=O)N[C@@H](C)C(=O)N[C@@H]([C@@H](C)O)C(=O)N1)[C@@H](C)O` [Compound 101, [19CD]-isoGlu-RC()NTATC()ATQRLAEFLHRSSNNF-Gly(Me)-A-Ile(Me)-LSSTNVGSNT-Gly(Me)-NH2] ({C20 diacid-γGlu}-RCNTATCATQRLAEFLHRSSNNF[Sar]A[NMeI]LSSTNVGSNT[Sar]-NH2; disulfide 2-7), the EC50 in data set [1] amounted to 0.6 nM. In data set [2], this compound yielded an EC50 of 2.7 nM. Moreover, in data set [3], the “Solubility, Acetate buffer pH 4” value is “SS (SS indicates solubility ≥ 1mg/ml)”; the “Solubility, Acetate buffer pH 5” value is “SS (SS indicates solubility ≥ 1mg/ml)”; the “Solubility, Histidine buffer pH 6” value is on record as “SS (SS indicates solubility ≥ 1mg/ml)”; the “Solubility, Histidine buffer pH 7” value is “SS (SS indicates solubility ≥ 1mg/ml)”. In data set [3], the “Solubility, Phosphate buffer pH 6” value is given as “II (II indicates solubility ≤ 1 mg/ml)”; the “Solubility, Phosphate buffer pH 7” value is given as “SS (SS indicates solubility ≥ 1mg/ml)”; the “Solubility, Phosphate buffer pH 7.5” value is “SS (SS indicates solubility ≥ 1mg/ml)”.

What is called EC50 is the concentration needed to bring the measured effect to its halfway point.
